Test results as given in patent US20100234238A1, “METHOD FOR PROFILING KINASE INHIBITORS” (Janssen Pharmaceutica N V, priority 2006, published 2010).

Test system: 27 cell lines, representing diverse cancer cell types
Test: Inhibition of proliferation of cell lines in vitro (response status)
Assay type: cell-based
Set-up: key: R = Responder to MTKI; NR = Non-Responder to MTKI
Conditions: MTKI
Experimental: It was tested whether the Pamchip peptide arrays are a useful tool to predict the response of a cell line to the multi-targeted kinase inhibitor, MTKI. MTKI inhibits the proliferation of a range of cell lines in vitro with widely varying IC50's. The lysates prepared from these 27 cell lines, representing diverse cancer cell types, were profiled on the peptide arrays in the absence or presence of 5 μM MTKI, in 6 replicates for each condition. In this panel, 13 cell lines were defined as responder cell lines (IC50<3 μM; cell lines are ordered according to increasing IC50 in Example 1, whereas 14 cell lines are classified as ‘non-responder’ cell lines (IC50>10 μM). Intermediary cell lines and cell lines with highly variable IC50 measurements were omitted from the analysis. The experiment included the highly responsive H3255 lung cancer cell line, which overexpresses mutant EGFR L858R. This mutant variant is highly responsive to MTKI, which is an ATP-competitive compound that binds to the active conformation of EGFR (similar to erlotinib and gefitinib). Accordingly, the most profound changes induced by MTKI in lysate kinase activity can be observed for this highly responsive cell line. To identify those peptides for which the inhibition of phosphorylation by MTKI correlates well with the response status of the cell line from which the lysate was prepared, a statistical mixed-model was set up to identify those peptides that are most likely to change after MTKI treatment in responder cell lysates compared to non-responder lysates, taken into account the inter-replicate variability (see the material and methods section for a more detailed description of the statistical test). […] To illustrate that the inhibition of the phosphorylation of these peptides in a given lysate does indeed correlate with the response of the corresponding cell line to MTKI, the following cut-off was chosen to classify responders and non-responders: minimally 4 peptides out of the 16 peptide list should be inhibited with a ratio of less than 0.8 (more than 20% inhibition) to classify as a responder. Applying this rule to all 27 cell lines indicates an overall classification accuracy of 82% (with 78% sensitivity, and 86% specificity). […] Note that the use of these […] peptides as a classification tool can be optimized according to the required sensitivity and specificity.

Measured: response status

COc1cc2ncnc3c2cc1OCCCCCN(C)Cc1ccc(Br)cc1N3 [MTKI, 4,6-ethanediylidenepyrimido[4,5-b][6,1,12]benzoxadiazacyclopentadecine, 17-bromo-8,9,10,11,12,13,14,19-octahydro-20-methoxy-13-methyl-]
R: A431 cell line | DU145 cell line | H2009 cell line | H3255 cell line | N87 cell line | SKBR3 cell line | SUM149 cell line
